The text below walks through data of patent US20230135373A1, “METHODS AND COMPOSITIONS FOR TREATING SLEEP APNEA” (APNIMED, INC. (DELAWARE), priority 2020, published 2023).

Assay [1] relates to healthy human individuals. As to the kind of experiment: Pilot study of genioglossus muscle activity (EMGGG). It counts as in vivo. As to the method: In healthy human individuals, the effect of once daily taltirelin 5 mg on genioglossus muscle activity is measured in a pilot study.
A first group of the patients is given once daily taltirelin 5 mg. A second group of patients is given placebo. Genioglossus muscle activity (EMGGG, quantified as a percentage of maximum) is measured during quiet wakefulness. Each peak EMGGG of a single breath is measured and is plotted against the corresponding epiglottic pressure. In addition, EMGGG is measured during stable NREM sleep.

Another assay deals with OSA human patients. As to the kind of experiment: Placebo-controlled, double-blinded, randomized, crossover trial in OSA. It counts as in vivo. The conditions noted are these: once daily 5-10 mg, 30 minutes before sleep. The method, then:
A placebo-controlled, double-blinded, randomized, crossover trial in OSA human patients is performed. Participants receive treatment (once daily taltirelin 5-10 mg) or placebo in randomized order 30 minutes before sleep.

Molecules are shown by their SMILES.

For the compound `CN1C(=O)C[C@@H](C(=O)N[C@@H](Cc2cnc[nH]2)C(=O)N2CCC[C@H]2C(N)=O)NC1=O` [taltirelin], the “EMGGG activity during NREM sleep compared to placebo” value in assay [1] (once daily 5 mg, NREM sleep) is listed as “much higher EMGGG activity”. Further, in assay [1] (once daily 5 mg, subjects exhibiting REM sleep), the “effect during REM sleep” value is “effective during REM sleep”. Further, the “sleep-related reduction in pharyngeal muscle activity (EMGGG)” value in assay [1] (once daily taltirelin 5 mg vs placebo night, during sleep) was “partially or completely prevented”. Moreover, in the assay on OSA human patients, the “genioglossus muscle responsiveness to an increase in ventilatory drive” value is “increased genioglossus muscle responsiveness”, the “oxygen levels (SaO2)” value is given as “increased oxygen levels”, the sleep efficiency result is recorded as “improved sleep efficiency” and the total sleep time entry is recorded as “increased total sleep time”. For the same compound, in the assay on OSA human patients, the “upper airway muscle activity” value is given as “improved upper airway muscle activity” and the ventilation result is given as “improved ventilation”. The OSA severity entry in the assay on OSA human patients (all patients) was “improvement in OSA severity”. In addition, in the assay with OSA human patients (vs placebo), the apnea hypopnea index entry is recorded as “reduce the apnea hypopnea index”.
